In paper PMC11335392, “Characterization of an Estrogen Receptor α-Selective ^18 F-Estradiol PET Tracer” (World Journal of Nuclear Medicine, 2024):

Biological target: T1, estrogen receptor α (ERα) (Homo sapiens, UniProt P03372)
T1 construct: gene ESR1; full-length human ESR1 (ERα), transiently expressed in HEK293T cells
T1 sequence (P03372 1-595): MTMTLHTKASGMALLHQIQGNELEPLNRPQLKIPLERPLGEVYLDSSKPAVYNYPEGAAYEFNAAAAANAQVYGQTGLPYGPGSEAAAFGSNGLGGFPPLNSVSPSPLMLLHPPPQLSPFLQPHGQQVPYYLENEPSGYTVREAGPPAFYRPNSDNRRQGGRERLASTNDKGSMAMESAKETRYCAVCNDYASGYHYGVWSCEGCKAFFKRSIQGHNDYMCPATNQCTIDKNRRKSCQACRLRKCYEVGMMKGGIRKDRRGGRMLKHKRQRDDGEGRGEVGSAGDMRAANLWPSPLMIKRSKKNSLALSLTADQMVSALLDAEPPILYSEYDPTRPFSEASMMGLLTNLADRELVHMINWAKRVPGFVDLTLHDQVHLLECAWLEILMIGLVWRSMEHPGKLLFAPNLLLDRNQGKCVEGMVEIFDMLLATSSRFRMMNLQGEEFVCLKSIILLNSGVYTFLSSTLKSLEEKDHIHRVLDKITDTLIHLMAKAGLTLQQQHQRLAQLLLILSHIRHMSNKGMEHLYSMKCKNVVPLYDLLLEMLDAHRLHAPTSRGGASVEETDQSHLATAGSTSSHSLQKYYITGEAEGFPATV
Test: radioligand saturation binding with Scatchard analysis in ERα-transfected HEK293T cells
Assay type: cell-based

For C[C@]12CC[C@@H]3c4ccc(O)cc4CC[C@H]3[C@@H]1C[C@@H](F)[C@@H]2O [[18F]FES, 16α-[18F]fluoro-17β-estradiol], the Kd was 94 nM.
